Experimental data reported in patent US9352015B2, “Antimicrobial peptides” (priority 2009, dated 2016).
In brackets after ≈: the same amount, converted by molar mass. Like-named read-outs stand apart in the source and are kept apart here. Where a SMILES comes first, the peptide text is derived from it.

Experiments:
[1] = Circular dichroism spectroscopy (helical structure); format: physicochemical
[2] = Hemolytic activity against human erythrocytes (HC50 / MHC, microtiter dilution); format: cell-based; details: 1% human erythrocytes, pH 7.4
Protocol: (§1) Hemoglobin release was determined spectrophotometrically at 570 nm. The hemolytic activity was determined as the peptide concentration that caused 50% hemolysis of erythrocytes after 18 h (HC50). […] HC50 was determined by a plot of peptide concentration versus percent lysis.

human erythrocytes = experiment: as above; format: cell-based
Protocol: as §1

[3] = tested on: Methicillin Resistant Staphylococcus aureus (MRSA) and Staphylococcus aureus; format: cell-based
Summary of the method: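 MICs by microtiter broth dilution in triplicate determinations, mostly LB no-salt medium (sometimes MH or BHI), final inoculum 5×10^5 CFU/ml (1×10^5 CFU/ml in the MH variant), 24 h at 37 °C. MIC is the lowest peptide concentration inhibiting growth; tested on 20 clinical MRSA and S. aureus isolates.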

Pseudomonas aeruginosa = details: geometric mean, 6 different isolates, 24 hours at 37° C.
Acinetobacter baumannii = format: cell-based; details: for Acinetobacter baumannii MICGM: geometric mean, 11 different isolates, 24 hours at 37° C.
Summary of the method: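 Microtiter broth dilution in triplicate, mainly LB no-salt medium (MH or BHI in some cases), peptides serially diluted, final inoculum 5×10^5 CFU/ml (1×10^5 CFU/ml in MH variant); 24 h at 37° C. MIC is the lowest peptide concentration inhibiting growth, given in micromolar against clinical isolates.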

Gram-negative bacteria = experiment: MIC against Gram-negative bacteria (V681 analog studies); format: cell-based
Protocol: Minimal inhibitory concentrations (MICs) are determined using a standard microtiter dilution method, with 3 sets of determinations, in LB (Luria-Bertani) no-salt medium (10 g of tryptone and 5 g of yeast extract per liter). In some cases, Mueller Hinton (MH) medium or Brain Heart Infusion (BHI) medium is used.
Briefly, cells were grown overnight at 37° C. in LB and diluted in the same medium. Serial dilutions of the peptides are added to the microtiter plates in a volume of 100 μl followed by 10 μl of bacteria to give a final inoculum of 5×10^5 colony-forming units/ml. Plates are incubated at 37° C. for 24 hours and MICs determined as the lowest peptide concentration that inhibited growth. Alternatively, minimal inhibitory concentrations are determined using a standard microtiter dilution method in a Mueller-Hinton (MH) medium. Briefly, cells are grown overnight at 37° C. in MH broth and diluted in the same medium. In some cases, serial dilutions of the peptides are added to the microtiter plates in a volume of 100 μl followed by 10 μl of bacteria to give a final inoculum of 1×10^5 colony-forming units/ml. Plates are incubated at 37° C. for 24 hours and MICs are determined as the lowest peptide concentration that inhibited growth.

| Compound | Hemolytic activity HC50 (human erythrocytes) | MIC GM (geometric mean) [3] | Pseudomonas aeruginosa MICGM (Pseudomonas aeruginosa) | Antimicrobial Activity MIC against A. baumannii (Acinetobacter baumannii) | MIC GM (geometric mean) (Acinetobacter baumannii) | Acinetobacter baumannii MICGM (Acinetobacter baumannii) | HC50 at 18 h ([2]; human) | other results |
| --- | --- | --- | --- | --- | --- | --- | --- | --- |
| PLL: V681 with L-Leu at position 11 (polar face), SEQ ID NO:13 (KWKSFLKTFKLAVKTVLHTALKAISS) | – | – | – | – | – | – | – | [θ]222 molar ellipticity ([1]; benign conditions (100 mM KCl, 50 mM aq. PO4, pH 7)): −10,850 |
| CC(=O)N[C@H](CCCCN)C(=O)N[C@H](CC(C)C)C(=O)N[C@H](CCCCN)C(=O)N[C@H](CO)C(=O)N[C@H](CC(C)C)C(=O)N[C@H](CC(C)C)C(=O)N[C@H](CCCCN)C(=O)N[C@@H](C(=O)N[C@H](CC(C)C)C(=O)N[C@H](CO)C(=O)N[C@H](CCCCN)C(=O)N[C@H](C)C(=O)N[C@H](CCCCN)C(=O)N[C@H](CCCCN)C(=O)N[C@H](CCCCN)C(=O)N[C@H](CC(C)C)C(=O)N[C@H](CC(C)C)C(=O)N[C@H](CCCCN)C(=O)N[C@@H](C(=O)N[C@H](C)C(=O)N[C@H](CC(C)C)C(=O)N[C@H](CCCCN)C(=O)N[C@H](C)C(=O)N[C@H](CC(C)C)C(=O)N[C@H](CO)C(=O)N[C@H](CCCCN)C(N)=O)[C@H](C)O)[C@H](C)O [Peptide D15, Ac-KLKSLLKTLSKAKKKLLKTALKALSK-amide] | 169.6 µM | 8.1 µM (≈ 23.7 µg/mL) | 1 µM | 0.5 µM | 0.5 µM (≈ 1.46 µg/mL) | 0.5 µM | – | HC50 at 18 h ([2]; human erythrocytes, concentration of peptide that results in 50% hemolysis after 18 hours at 37° C., read-out: Hemolytic activity HC50): 170 µM; Hemolytic activity HC50 (human erythrocytes; 50% hemolysis after 18 hours at 37° C.): 170 µM |
| Ac-ELEKGGLEGEKGGKELEK-amide (Ac-ELEKGGLEGEKGGKELEK-NH2) [peptide C] | – | – | – | – | – | – | – | [θ]222 molar ellipticity ([1]; 50% TFE, 5° C.): −3,950 |
| CC[C@@H](C)[C@@H](NC(=O)[C@@H](C)NC(=O)[C@@H](CCCCN)NC(=O)[C@@H](CC(C)C)NC(=O)[C@@H](C)NC(=O)[C@H](NC(=O)[C@@H](CCCCN)NC(=O)[C@@H](CC(C)C)NC(=O)[C@H](NC(=O)[C@@H](CCCCN)NC(=O)[C@@H](CCCCN)NC(=O)[C@@H](CCCCN)NC(=O)[C@@H](C)NC(=O)[C@@H](CCCCN)NC(=O)[C@@H](CO)NC(=O)[C@@H](Cc1ccccc1)NC(=O)[C@H](NC(=O)[C@@H](CCCCN)NC(=O)[C@@H](CC(C)C)NC(=O)[C@@H](Cc1ccccc1)NC(=O)[C@@H](CO)NC(=O)[C@@H](CCCCN)NC(=O)[C@@H](Cc1c[nH]c2ccccc12)NC(=O)[C@@H](CCCCN)NC(C)=O)[C@H](C)O)C(C)C)[C@H](C)O)C(=O)N[C@H](CO)C(=O)N[C@H](CCCCN)C(N)=O [Peptide D11, Ac-KWKSFLKTFSKAKKKVLKTALKAISK-amide] | 254.1 µM | 14.0 µM (≈ 42.7 µg/mL) | 1.6 µM | 0.6 µM | 0.6 µM (≈ 1.83 µg/mL) | 0.6 µM | 254 µM | – |
| CC(=O)N[C@H](CCCCN)C(=O)N[C@H](CC(C)C)C(=O)N[C@H](CCCCN)C(=O)N[C@H](CO)C(=O)N[C@H](CC(C)C)C(=O)N[C@H](CC(C)C)C(=O)N[C@H](CCCCN)C(=O)N[C@@H](C(=O)N[C@H](CC(C)C)C(=O)N[C@H](CO)C(=O)N[C@H](CCCCN)C(=O)N[C@H](C)C(=O)N[C@H](CCCCN)C(=O)N[C@H](CCCCN)C(=O)N[C@H](CCCCN)C(=O)N[C@H](CCCCN)C(=O)N[C@H](CC(C)C)C(=O)N[C@H](CCCCN)C(=O)N[C@@H](C(=O)N[C@H](CC(C)C)C(=O)N[C@H](CC(C)C)C(=O)N[C@H](CCCCN)C(=O)N[C@H](C)C(=O)N[C@H](CC(C)C)C(=O)N[C@H](CO)C(=O)N[C@H](CCCCN)C(N)=O)[C@H](C)O)[C@H](C)O [Peptide D16, Ac-KLKSLLKTLSKAKKKKLKTLLKALSK-amide] | – | 48.3 µM (≈ 144 µg/mL) | 1.5 µM | 0.4 µM | 0.4 µM (≈ 1.19 µg/mL) | 0.4 µM | 1340 µM | Fold less hemolytic than D1 (human erythrocytes): 9.5; Fold more active than D1 against A. baumannii (Acinetobacter baumannii): ~3 fold |
| CC(=O)N[C@H](CCCCN)C(=O)N[C@H](CC(C)C)C(=O)N[C@H](CCCCN)C(=O)N[C@H](CO)C(=O)N[C@H](CC(C)C)C(=O)N[C@H](CC(C)C)C(=O)N[C@H](CCCCN)C(=O)N[C@@H](C(=O)N[C@H](CC(C)C)C(=O)N[C@H](CO)C(=O)N[C@H](CCCCN)C(=O)N[C@H](CC(C)C)C(=O)N[C@H](CCCCN)C(=O)N[C@H](CCCCN)C(=O)N[C@H](CCCCN)C(=O)N[C@H](CCCCN)C(=O)N[C@H](CC(C)C)C(=O)N[C@H](CCCCN)C(=O)N[C@@H](C(=O)N[C@H](CC(C)C)C(=O)N[C@H](CC(C)C)C(=O)N[C@H](CCCCN)C(=O)N[C@H](CC(C)C)C(=O)N[C@H](CC(C)C)C(=O)N[C@H](CO)C(=O)N[C@H](CCCCN)C(N)=O)[C@H](C)O)[C@H](C)O [Peptide D24, Ac-KLKSLLKTLSKLKKKKLKTLLKLLSK-amide] | 123 µM | – | 3.9 µM | – | – | 1.9 µM | – | – |
| CC[C@H](C)[C@H](NC(=O)[C@H](C)NC(=O)[C@H](CCCCN)NC(=O)[C@H](CC(C)C)NC(=O)[C@H](C)NC(=O)[C@@H](NC(=O)[C@H](Cc1c[nH]cn1)NC(=O)[C@H](CC(C)C)NC(=O)[C@@H](NC(=O)[C@@H](NC(=O)[C@H](CCCCN)NC(=O)[C@H](CC(C)C)NC(=O)[C@H](C)NC(=O)[C@H](CO)NC(=O)[C@H](CCCCN)NC(=O)[C@H](Cc1ccccc1)NC(=O)[C@@H](NC(=O)[C@H](CCCCN)NC(=O)[C@H](CC(C)C)NC(=O)[C@H](Cc1ccccc1)NC(=O)[C@H](CO)NC(=O)[C@H](CCCCN)NC(=O)[C@H](Cc1c[nH]c2ccccc12)NC(=O)[C@H](CCCCN)NC(C)=O)[C@@H](C)O)[C@@H](C)O)C(C)C)[C@@H](C)O)C(=O)N[C@@H](CO)C(=O)N[C@@H](CO)C(N)=O [NLL] (Ac-KWKSFLKTFKSALKTVLHTALKAISS-NH2) | – | – | – | – | – | – | – | MIC against Gram-negative bacteria (Gram-negative bacteria): 12.7 µg/mL (≈ 4.27 µM) |
| CC[C@@H](C)[C@@H](NC(=O)[C@@H](C)NC(=O)[C@@H](CCCCN)NC(=O)[C@@H](CC(C)C)NC(=O)[C@@H](CC(C)C)NC(=O)[C@H](NC(=O)[C@@H](CCCCN)NC(=O)[C@@H](CC(C)C)NC(=O)[C@@H](CCCCN)NC(=O)[C@@H](CCCCN)NC(=O)[C@@H](CCCCN)NC(=O)[C@@H](CCCCN)NC(=O)[C@@H](C)NC(=O)[C@@H](CCCCN)NC(=O)[C@@H](CO)NC(=O)[C@@H](Cc1ccccc1)NC(=O)[C@H](NC(=O)[C@@H](CCCCN)NC(=O)[C@@H](CC(C)C)NC(=O)[C@@H](Cc1ccccc1)NC(=O)[C@@H](CO)NC(=O)[C@@H](CCCCN)NC(=O)[C@@H](Cc1c[nH]c2ccccc12)NC(=O)[C@@H](CCCCN)NC(C)=O)[C@H](C)O)[C@H](C)O)C(=O)N[C@H](CO)C(=O)N[C@H](CCCCN)C(N)=O [Peptide D14, Ac-KWKSFLKTFSKAKKKKLKTLLKAISK-amide] | 351.5 µM | 40.1 µM (≈ 125 µg/mL) | 2.5 µM | 0.8 µM | 0.8 µM (≈ 2.5 µg/mL) | 0.8 µM | 352 µM | – |
